The CheMixHub viscosity set

Assay: xn = mol fraction of the nth substance listed

C#CCO + O
viscosity [mPa·s]
Conditions | 303.15 K | 308.15 K | 313.15 K | 318.15 K | 323.15 K
101 kPa, x1 = 0.1 | 1.094 | 0.9708 | 0.8728 | 0.7923 | 0.7208
101 kPa, x1 = 0.166 | 1.191 | 1.06 | 0.9534 | 0.8633 | 0.7845
101 kPa, x1 = 0.3 | 1.275 | 1.135 | 1.023 | 0.9273 | 0.845
101 kPa, x1 = 0.4 | 1.291 | 1.157 | 1.048 | 0.9513 | 0.8707
101 kPa, x1 = 0.499 | 1.296 | 1.165 | 1.054 | 0.9624 | 0.8802
101 kPa, x1 = 0.599 | 1.309 | 1.179 | 1.069 | 0.9758 | 0.8933
101 kPa, x1 = 0.7 | 1.313 | 1.188 | 1.079 | 0.9844 | 0.902
101 kPa, x1 = 0.801 | 1.327 | 1.202 | 1.092 | 0.9977 | 0.9169
101 kPa, x1 = 0.899 | 1.33 | 1.204 | 1.095 | 1 | 0.9179
101.32 kPa, x1 = 0.1138 | – | 0.9894 | 0.8862 | 0.7991 | 0.7267
101.32 kPa, x1 = 0.2351 | – | 1.105 | 0.9927 | 0.8936 | 0.8222
101.32 kPa, x1 = 0.3145 | – | 1.149 | 1.034 | 0.9365 | 0.8508
101.32 kPa, x1 = 0.4174 | – | 1.171 | 1.059 | 0.9551 | 0.8741
101.32 kPa, x1 = 0.5002 | – | 1.186 | 1.069 | 0.9676 | 0.8856
101.32 kPa, x1 = 0.61 | – | 1.194 | 1.077 | 0.9877 | 0.8958
101.32 kPa, x1 = 0.7185 | – | 1.2 | 1.085 | 0.9924 | 0.9072
101.32 kPa, x1 = 0.8223 | – | 1.209 | 1.095 | 1 | 0.9191
101.32 kPa, x1 = 0.9 | – | 1.216 | 1.107 | 1.007 | 0.9223

C1COCO1 + O
viscosity [mPa·s], 101 kPa
Conditions | 298.15 K | 303.15 K | 308.15 K | 313.15 K | 318.15 K | 323.15 K
x1 = 0.01 | 0.754 | – | 0.6051 | – | 0.5251 | –
x1 = 0.026 | 0.813 | – | 0.6561 | – | 0.5671 | –
x1 = 0.03 | – | 0.8133 | – | 0.6555 | – | 0.5673
x1 = 0.041 | 0.8741 | – | 0.7144 | – | 0.6071 | –
x1 = 0.06 | – | 0.8766 | – | 0.7152 | – | 0.6053
x1 = 0.09 | – | 0.9304 | – | 0.7618 | – | 0.6297

CCC(O)CC + O
298.15 K, 101 kPa
Conditions | viscosity [mPa·s]
x2 = 0.0181 | 4.598
x2 = 0.0463 | 4.339
x2 = 0.0845 | 4.074
x2 = 0.1302 | 3.873
x2 = 0.1754 | 3.748
x2 = 0.1948 | 3.712
x2 = 0.2262 | 3.67
x2 = 0.2533 | 3.65
x2 = 0.2782 | 3.641
x2 = 0.3215 | 3.648

CCCCCCn1cc[n+](C)c1.[Br-] + O
303.15 K, 101 kPa
Conditions | viscosity [mPa·s]
x2 = 0.2196 | 695.5
x2 = 0.2978 | 395.5

CCN(CCO)CCO + O
viscosity [mPa·s], 101 kPa
Conditions | 303.15 K | 308.15 K | 313.15 K | 318.15 K | 323.15 K
x1 = 0.0478 | 2.433 | 2.084 | 1.809 | 1.585 | 1.4
x1 = 0.1002 | 5.975 | 4.885 | 4.051 | 3.403 | 2.897
x1 = 0.1411 | 10.13 | 8.044 | 6.499 | 5.322 | 4.422
x1 = 0.1933 | 16.59 | 12.84 | 10.12 | 8.088 | 6.604
x1 = 0.2959 | 31.21 | 23.36 | 17.84 | 13.84 | 10.95
x1 = 0.3944 | 43.07 | 31.83 | 24.05 | 18.38 | 14.39
x1 = 0.495 | 51.1 | 37.78 | 28.28 | 21.56 | 16.84
x1 = 0.5912 | 54.81 | 40.53 | 30.44 | 23.28 | 18.22
x1 = 0.7064 | 55.22 | 40.91 | 31.03 | 23.93 | 18.76
x1 = 0.8113 | 53.42 | 39.97 | 30.47 | 23.66 | 18.65
x1 = 0.8934 | 51.39 | 38.76 | 29.74 | 23.19 | 18.44

CN1CCCCCC1=O + O
298.16 K, 101 kPa
Conditions | viscosity [mPa·s]
x2 = 0.0975 | 5.35
x2 = 0.2528 | 6.17
x2 = 0.4046 | 7.19
x2 = 0.4996 | 7.85
x2 = 0.577 | 8.2
x2 = 0.63 | 8.28
x2 = 0.7444 | 7.43
x2 = 0.8512 | 5.1

Cn1cc[n+](CC(O)CNCCN(CCNCC(O)C[n+]2ccn(C)c2)CC(O)C[n+]2ccn(C)c2)c1.[Cl-].[Cl-].[Cl-] (stereo not drawn) + O
101.33 kPa, x2 = 0.49
Conditions | viscosity [mPa·s]
298.15 K | 1956
308.15 K | 779.1
318.15 K | 370.5

O=C1CCC[NH+]1C1CCCCC1.O=S(=O)([O-])c1ccccc1 + O
Conditions | viscosity [mPa·s]
303.15 K, 101 kPa, x1 = 0.01351 | 1.405
